From US20260083731A1, “METHODS OF TREATING UVEAL MELANOMA WITH A PKC INHIBITOR” (IDEAYA BIOSCIENCES, INC., priority 2022, published 2026)

Key:
[1] = test system: uveal melanoma cells harboring GNAQ mutations; details: by targeting PKC/ERK1/2 and PKC/NF-xB pathways; X. Wu et al. 2012; cited from earlier work
[2] = test system: ocular tumor (uveal melanoma); experiment: Neoadjuvant treatment of uveal melanoma patients, ocular tumor size by ocular ultrasound; format: in vivo, human; details: vs baseline
Description: Patients can meet all of the following inclusion criteria: • Patient must be at least 18 years of age. • Patient is able to provide written, informed consent before initiation of any study related-procedures, and is able, in the opinion of the investigator, to comply with all the requirements of the study. • Primary diagnosis of uveal melanoma as clinically determined by the treating investigator planned to undergo enucleation (prior plaque brachytherapy is permitted) • Life expectancy >3 months. • Able to safely swallow orally administered medication. • Patients with a prior history of or clinically stable concurrent malignancy are eligible for enrolment provided the malignancy is clinically insignificant, no treatment is required, and the patient is clinically stable. • Patients with a history of squamous or basal cell carcinoma of the skin or carcinoma in the situ of the cervix may be enrolled. • Patients with prostate cancer with an elevated PSA not requiring treatment may be enrolled. • Patient has Eastern Cooperative Oncology Group (ECOG) performance status 0-1 (Karnofsky 70%). • Patient has adequate organ function at screening: • Absolute neutrophil count ≥1500/mm3 without the use of hematopoietic growth factors • Platelet count ≥75,000/mm3 (must be at least 2 weeks post-platelet transfusion and not receiving platelet-stimulating agents) • Haemoglobin ≥8.0 g/dL (must be at least 2 weeks post-red blood cell transfusion and not receiving erythropoietic-stimulating agents) • Total bilirubin ≤1.5× the upper limit of normal (ULN).
The presence of any of the following can exclude a patient from being eligible for the study: • Previous treatment with a PKC inhibitor • Have adverse events (AEs) from prior anti-cancer therapy that have not resolved to Grade ≤1 except for alopecia, prior peripheral neuropathy, or anemia. Endocrinopathies resulting from previous immunotherapy are considered part of the medical history and not an AE. • Untreated or symptomatic malignant lesions in the central nervous system (CNS). • Known human immunodeficiency virus (HIV) or acquired immunodeficiency syndrome (AIDS)-related illness. • Active infection requiring therapy (except nail fungus), positive tests for Hepatitis B surface antigen (HBsAg) with detected Hepatitis B virus (HBV) DNA or positive Hepatitis C antibody with detected Hepatitis C virus (HCV) RNA. • Prior gastrectomy or upper bowel removal or any other gastrointestinal disorder or defect e.g., malabsorption disorder such as Crohn's disease or ulcerative colitis, that would interfere with absorption of Compound 1. • Patients who are receiving treatment with medications that cannot be discontinued prior to study entry and that are considered to be any of the following • known to be strong inducers or inhibitors of CYP3A4/5 • known to be substrates of CYP3A4/5, OAT3, OATP1B1, and MATE1/2-K with a narrow therapeutic index • Females who are pregnant or breastfeeding: • Women of childbearing potential must not be considering getting pregnant during the study. • Patients of reproductive potential (male & female) must practice an effective method of contraception during treatment and for 30 days following the last dose of Compound 1. […] If electrolytes are abnormal, they may be corrected, and baseline ECGs should be repeated. • Known to have previously received Compound 1 • Presence of any other condition that may increase the risk associated with study participation or may interfere with the interpretation of study results and, in the opinion of the investigator, would make the patient inappropriate for entry into the study.
A patient (patient 1) (enrolled in NCT05187884) was treated with Compound 1 (300 mg BID) for 27 days, prior to potential planned interventional procedure comprising enucleation. A 22% ocular tumor reduction in maximal apical height by ocular ultrasound (after about 28 days administration of Compound 1) was observed prior to the planned interventional procedure. […]

[3] = test system: ocular tumor (uveal melanoma); experiment: Clinical outcome of the affected eye in treated uveal melanoma patients; format: in vivo, human
Experimental: (§1) A patient (patient 2) (enrolled in NCT02601378) with metastatic disease to liver and peritoneum at the time of diagnosis, and with primary lesion intact (intact ocular tumor) was treated with Compound 1 (300 mg BID).
A patient (patient 5) (enrolled in NCT05187884) was treated with Compound 1 (300 mg BID) for about 28 days. A 13% ocular tumor reduction in maximal apical height by ocular ultrasound was observed (after about 28 days administration of Compound 1). The patient is continuing on treatment to maximal benefit up to 6 months prior to planned enucleation. The patient was continuing treatment with Compound 1 (300 mg BID) for additional about 3 months (in addition to about 28 days as described above), and a 24% ocular tumor reduction in maximal apical height by ocular ultrasound was observed. […] The patient continues on adjuvant therapy for potentially up to 6 months.
A patient (patient 6) (enrolled in NCT05187884) was treated with Compound 1 (300 mg BID) for about 56 days, prior to the planned interventional procedure (e.g. enucleation). A 11% ocular tumor reduction in maximal apical height and 23% in Largest Basal Diameter by ocular ultrasound was observed. The patient is continuing on treatment to maximal benefit up to 6 months prior to planned enucleation. The patient continued treatment with Compound 1 (300 mg BID) for about 2 months (in addition to the 56 days as described above), and a 24% ocular tumor reduction in maximal apical height by ocular ultrasound was observed. The patient continued treatment with Compound 1 (300 mg BID) for about 1 month (in addition to about 4 months described above), and a 45% ocular tumor reduction in maximal apical height and 63% reduction in Largest Basal Diameter by ocular ultrasound was observed.

[4] = test system: ocular tumor (uveal melanoma); experiment: PET scan of metabolic activity of the ocular tumor (FDG avidity, SUV) in treated patients; format: in vivo, human
Experimental: as §1
A patient (patient 4) (enrolled in NCT05187884) was treated with Compound 1 (300 mg BID) for about 28 days, prior to the planned interventional procedure (e.g., enucleation). A 31% ocular tumor reduction in maximal apical height by ocular ultrasound was observed (after about 28 days administration of Compound 1).

[5] = patient 6, 300 mg BID, about 4 months plus about 1 month
[6] = patient 6, 300 mg BID, about 56 days
[7] = patient 7, 300 mg BID, after about 84 days
[8] = patient 8, 300 mg BID, after about 84 days
[9] = patient 9, 300 mg BID, after about 56 days

Compound: CN1CCN(c2nc(C3=C(c4c[nH]c5ccccc45)C(=O)NC3=O)c3ccccc3n2)CC1 [sotrastaurin]
- inhibition of growth of uveal melanoma cells harboring GNAQ mutations [1]: selectively inhibit the growth

Compound: CC1(N)CCN(c2cccnc2NC(=O)c2nc(-c3ncccc3C(F)(F)F)cnc2N)CC1 [Compound 1]
- ocular tumor reduction in maximal apical height by ocular ultrasound ([2]; patient 1, 300 mg BID, after about 28 days): 22%
- ocular tumor reduction in maximal apical height by ocular ultrasound ([2]; patient 3, 300 mg BID, after 28 days): ~10%
- ocular tumor reduction in maximal apical height by ocular ultrasound ([2]; patient 4, 300 mg BID, after about 28 days): 31%
- ocular tumor reduction in maximal apical height by ocular ultrasound ([2]; patient 5, 300 mg BID, about 28 days plus additional about 3 months): 24%
- ocular tumor reduction in maximal apical height by ocular ultrasound ([2]; patient 5, 300 mg BID, after about 28 days): 13%
- ocular tumor reduction in maximal apical height by ocular ultrasound ([2]; patient 6, 300 mg BID, 56 days plus about 2 months): 24%
- ocular tumor reduction in maximal apical height by ocular ultrasound [2, 5]: 45%
- reduction in Largest Basal Diameter by ocular ultrasound [2, 5]: 63%
- ocular tumor reduction in maximal apical height by ocular ultrasound [2, 6]: 11%
- reduction in Largest Basal Diameter by ocular ultrasound [2, 6]: 23%
- ocular tumor reduction in maximal apical height by ocular ultrasound [2, 7]: 14.3%
- reduction in Largest Basal Diameter by ocular ultrasound [2, 7]: 15.2%
- ocular tumor reduction in maximal apical height by ocular ultrasound [2, 8]: 28.5%
- reduction in Largest Basal Diameter by ocular ultrasound [2, 8]: 19.4%
- ocular tumor reduction in maximal apical height by ocular ultrasound [2, 9]: 4.0%
- reduction in Largest Basal Diameter by ocular ultrasound [2, 9]: 2.1%
- patient-reported visual symptoms in affected eye ([3]; patient 2, 300 mg BID): improvement in visual symptoms in affected eye
- eye outcome (plaque brachytherapy enabled instead of planned enucleation) ([3]; patient 5, 300 mg BID neoadjuvant): the eye was preserved
- eye outcome (plaque brachytherapy enabled instead of planned enucleation) ([3]; patient 6, 300 mg BID neoadjuvant): the eye was preserved
- reduction in the metabolic activity of the ocular tumor (FDG avidity) by SUV, PET ([4]; patient 2 (metastatic disease, intact ocular tumor), 300 mg BID, after about two weeks): 74%
- reduction in the metabolic activity of the ocular tumor (FDG avidity) by SUV, PET ([4]; patient 4, 300 mg BID, after about one month): 42%
